Measurements as given in ChEMBL document CHEMBL1126504, “Synthesis of pyrrolidine oxazoles as thromboxane A2/endoperoxide receptor antagonists” (Bioorg Med Chem Lett, 1993).

What was measured:
Homo sapiens = species: Homo sapiens; assay: Inhibition of arachidonic acid-induced and ADP-induced platelet aggregation of human platelet rich plasma; type: functional; conditions: read-out: I50
Thromboxane A2 receptor = biological target: T1, Thromboxane A2 receptor (Homo sapiens, UniProt P21731); assay: Binding affinity was determined for Thromboxane A2 receptor in human platelet membrane in presence of [3H]-SQ-29,548 radioligand; type: cell membranes
T1 sequence (P21731 whole entry): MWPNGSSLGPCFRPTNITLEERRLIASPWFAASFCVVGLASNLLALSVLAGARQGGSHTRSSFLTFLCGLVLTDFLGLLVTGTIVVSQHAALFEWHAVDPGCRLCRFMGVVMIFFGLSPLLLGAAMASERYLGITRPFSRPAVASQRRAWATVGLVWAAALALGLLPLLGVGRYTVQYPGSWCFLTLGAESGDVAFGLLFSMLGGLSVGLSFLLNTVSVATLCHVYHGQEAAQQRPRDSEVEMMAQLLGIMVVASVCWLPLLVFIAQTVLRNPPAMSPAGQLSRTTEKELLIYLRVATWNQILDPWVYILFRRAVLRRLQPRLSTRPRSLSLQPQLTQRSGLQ

| IC50 (Homo sapiens; Homo sapiens, Plasma) [nM] | SMILES | also measured |
| --- | --- | --- |
| 23000 | O=C(O)CCc1ccccc1CN1C(=O)CCC1c1nc(C(=O)NCCCCC2CCCCC2)co1 (stereo not drawn) |  |
| 1700 | O=C(O)CCc1ccccc1CN1CCC[C@@H]1c1nc(C(=O)NCCCCC2CCCCC2)co1 |  |

The next lines start with the molecule.

| SMILES | IC50 (Homo sapiens; Homo sapiens, Plasma) [nM] | also measured |
| --- | --- | --- |
| O=C(O)CCc1ccccc1C(=O)N1c2ccccc2CC1c1nc(C(=O)NCCc2ccc(Cl)cc2)co1 (single isomer, unassigned; (-)) |  | IC50 (Homo sapiens): 3700 nM |
| O=C(O)CCc1ccccc1C(=O)N1c2ccccc2CC1c1nc(C(=O)NCCc2ccc(Cl)cc2)co1 (single isomer, unassigned; (+)) |  | IC50 (Homo sapiens): 250 nM |
| O=C(O)CCc1ccccc1C(=O)N1CCC[C@H]1c1nc(C(=O)NCCCCC2CCCCC2)co1 | 19 |  |
| O=C(O)CCc1ccccc1CN1CCC[C@H]1c1nc(C(=O)NCCCCC2CCCCC2)co1 | 19 |  |
| O=C(O)CCc1ccccc1CN1CCCC1c1nc(C(=O)NCCCCC2CCCCC2)co1 (stereo not drawn) |  | Kd (Thromboxane A2 receptor): 11 nM |
| O=C(O)CCc1ccccc1C(=O)N1[C@@H](O)CC[C@H]1c1nc(C(=O)NCCc2ccc(Cl)cc2)co1 | 3700 |  |
